According to ChEMBL document CHEMBL3351946, “Design and synthesis of potent antitumor water-soluble phenyl N-mustard-benzenealkylamide conjugates via a bioisostere approach” (Eur J Med Chem, 2014):
Active and inactive are the calls of the source. The rule behind the calls is not given here.

Tests used:
[1] = Cytotoxicity against human PC3 cells assessed as growth inhibition after 72 hrs by Alamar Blue assay; type: functional, cell-based; details: PC-3, 72 h
[2] = Cell cycle arrest in human HCT116 cells assessed as accumulation at G2/M phase at 1 uM after 72 hrs by FACS flow cytometric analysis (reference value: 12.82 +/- 2.19%); type: functional, cell-based; details: HCT-116
Mus musculus [3] = experiment: Toxicity in iv dosed CD-1 (ICR) mouse assessed as swelling of mouth measured for 14 days; type: organism-based; details: in vivo, 336 h
PC-3 [4] = experiment: Antitumor activity against human PC3 cells xenografted in nude mouse assessed as survival at 50 mg/kg,iv administered every 2 days for 5 doses; type: functional, organism-based; design: dose 50 mg/kg
NCI-H460 = experiment: Antitumor activity against human H460 cells xenografted in nude mouse assessed as survival at 30 mg/kg,iv qd administered for 6 days; type: functional, organism-based; design: dose 30 mg/kg
Mus musculus [5] = experiment: Toxicity in iv dosed CD-1 (ICR) mouse assessed as swelling of nose measured for 14 days; type: organism-based; details: in vivo, 336 h
Mus musculus [6] = experiment: Toxicity in nude mouse xenografted with human HCT116 cells assessed as body weight loss at 30 mg/kg,iv qd administered for 6 days measured on day 13 relative to control; type: organism-based, HCT-116; design: dose 30 mg/kg; details: in vivo, 144 h
HCT-116 = experiment: Induction of apoptosis in human HCT116 cells assessed as PARP cleavage at 1 to 4 uM after 24 hrs by Western blot analysis; type: functional, cell-based
PC-3 [7] = experiment: Antitumor activity against human PC3 cells xenografted in iv dosed nude mouse assessed as tumor growth inhibition; type: functional, organism-based
[8] = Cell cycle arrest in human HCT116 cells assessed as accumulation at G2/M phase at 4 uM after 72 hrs by FACS flow cytometric analysis (reference value: 12.82 +/- 2.19%); type: functional, cell-based; details: HCT-116
[9] = Cell cycle arrest in human HCT116 cells assessed as accumulation at S phase at 4 uM after 48 hrs by FACS flow cytometric analysis (reference value: 12.11 +/- 4.28%); type: functional, cell-based; details: HCT-116
[10] = Cell cycle arrest in human HCT116 cells assessed as accumulation at S phase at 4 uM after 72 hrs by FACS flow cytometric analysis (reference value: 7.49 +/- 0.95%); type: functional, cell-based; details: HCT-116
[11] = Antitumor activity against human H460 cells xenografted in nude mouse assessed as tumor growth inhibition at 30 mg/kg,iv qd administered for 6 days measured on day 19 to 26 relative to control; type: functional, NCI-H460
Mus musculus [12] = experiment: Toxicity in CD-1 (ICR) mouse assessed as gross lesions in thymus at 150 mg/kg, iv measured for 14 days; type: organism-based; design: dose 150 mg/kg, route intravenous; details: in vivo, 336 h
[13] = Antitumor activity against human H3347 cells xenografted in nude mouse assessed as tumor growth inhibition at 30 mg/kg,iv qd administered for 6 days measured on day 15 relative to control; type: functional
[14] = target: Voltage-gated inwardly rectifying potassium channel KCNH2 (Homo sapiens, UniProt Q12809); experiment: Binding affinity to human ERG after 4 hrs by fluorescence polarization assay
Mus musculus [15] = experiment: Toxicity in nude mouse xenografted with human PC3 cells assessed as body weight loss at 40 mg/kg,iv administered every 2 days for 5 doses measured on day 16 relative to control; type: organism-based, PC-3; design: dose 40 mg/kg; details: in vivo, 48 h
[16] = Cytotoxicity against human DLD1 cells assessed as growth inhibition after 72 hrs by Alamar Blue assay; type: functional, cell-based; details: DLD-1, 72 h
Mus musculus [17] = experiment: Toxicity in nude mouse xenografted with human HCT116 cells assessed as change in body weight at 30 mg/kg,iv qd administered for 6 days measured on day 31 relative to control; type: organism-based, HCT-116; design: dose 30 mg/kg; details: in vivo, 144 h
Mus musculus [18] = experiment: Toxicity in nude mouse xenografted with human H3347 cells assessed as body weight loss at 30 mg/kg,iv qd administered for 6 days measured on day 13 relative to control; type: organism-based; design: dose 30 mg/kg; details: in vivo, 144 h
[19] = Cell cycle arrest in human HCT116 cells assessed as accumulation at G1 phase at 2 uM after 72 hrs by FACS flow cytometric analysis (reference value: 76.29 +/- 2.65%); type: functional, cell-based; details: HCT-116
[20] = Cell cycle arrest in human HCT116 cells assessed as accumulation at sub-G1 phase at 1 uM after 24 hrs by FACS flow cytometric analysis (reference value: 1.37 +/- 0.95%); type: functional, cell-based; details: HCT-116
[21] = Cytotoxicity against human H3347 cells assessed as growth inhibition after 72 hrs by Alamar Blue assay; type: functional, cell-based; details: H3347, 72 h
[22] = Cell cycle arrest in human HCT116 cells assessed as accumulation at sub-G1 phase at 4 uM after 48 hrs by FACS flow cytometric analysis (reference value: 1.65 +/- 0.06%); type: functional, cell-based; details: HCT-116
[23] = Cell cycle arrest in human HCT116 cells assessed as accumulation at G2/M phase at 4 uM after 24 hrs by FACS flow cytometric analysis (reference value: 31.55 +/- 4.63%); type: functional, cell-based; details: HCT-116

Voltage-gated inwardly rectifying potassium channel KCNH2, sequence (Q12809 whole entry): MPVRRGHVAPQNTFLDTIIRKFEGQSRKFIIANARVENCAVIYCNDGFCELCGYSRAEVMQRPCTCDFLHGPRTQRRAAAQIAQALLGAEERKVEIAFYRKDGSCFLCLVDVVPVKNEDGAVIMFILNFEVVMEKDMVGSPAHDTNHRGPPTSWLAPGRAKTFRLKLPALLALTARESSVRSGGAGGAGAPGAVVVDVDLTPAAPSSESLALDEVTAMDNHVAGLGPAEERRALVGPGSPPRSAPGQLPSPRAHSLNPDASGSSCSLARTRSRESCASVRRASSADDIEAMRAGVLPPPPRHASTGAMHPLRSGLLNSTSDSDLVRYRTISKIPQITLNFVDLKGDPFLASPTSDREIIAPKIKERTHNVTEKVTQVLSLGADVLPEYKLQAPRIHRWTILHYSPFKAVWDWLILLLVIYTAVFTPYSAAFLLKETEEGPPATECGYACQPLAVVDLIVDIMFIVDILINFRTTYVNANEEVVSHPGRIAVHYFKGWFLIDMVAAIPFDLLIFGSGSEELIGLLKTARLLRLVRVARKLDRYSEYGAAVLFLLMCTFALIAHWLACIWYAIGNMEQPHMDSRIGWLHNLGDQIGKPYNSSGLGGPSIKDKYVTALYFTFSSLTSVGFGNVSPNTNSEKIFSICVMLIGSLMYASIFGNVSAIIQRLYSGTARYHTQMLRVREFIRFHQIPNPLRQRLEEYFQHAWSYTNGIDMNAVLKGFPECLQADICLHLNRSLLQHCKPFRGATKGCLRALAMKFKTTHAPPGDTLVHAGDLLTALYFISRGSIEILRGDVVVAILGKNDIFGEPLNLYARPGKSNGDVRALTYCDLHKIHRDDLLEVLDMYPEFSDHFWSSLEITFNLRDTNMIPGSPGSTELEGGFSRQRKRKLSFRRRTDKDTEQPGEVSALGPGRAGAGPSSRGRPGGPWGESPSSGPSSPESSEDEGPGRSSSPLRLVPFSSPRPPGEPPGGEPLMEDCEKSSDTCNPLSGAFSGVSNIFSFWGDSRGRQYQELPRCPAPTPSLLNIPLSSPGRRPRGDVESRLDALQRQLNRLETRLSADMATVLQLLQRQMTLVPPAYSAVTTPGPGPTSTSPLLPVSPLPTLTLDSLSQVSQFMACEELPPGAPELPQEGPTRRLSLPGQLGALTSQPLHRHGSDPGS

CCN(CC)CC(=O)Nc1ccc(NC(=O)Nc2ccc(N(CCCl)CCCl)cc2)cc1
IC50 [1]: 3.57 µM
Activity [2]: 20.5%
Activity (Mus musculus [3]): Dose-dependent effect
Activity (PC-3 [4]): Active
Activity (NCI-H460): Active
Activity (Mus musculus [5]): Dose-dependent effect
body weight change relative to control (Mus musculus [6]): -5%
Activity (HCT-116): Active
TGI (PC-3 [7]): Dose-dependent effect
Activity [8]: 41.4%
Activity [9]: 16.6%
Activity [10]: 19.8%
%max [11]: 61%
Activity (Mus musculus [12]): Toxic
%max [13]: 94%
Activity [14]: 4.48 µM
%max (Mus musculus [15]): -15%
IC50 [16]: 3.85 µM
Activity (Mus musculus [17]): 9%
Activity (Mus musculus [18]): 10%
Activity [19]: 38.7%
Activity [20]: 1.58%
IC50 [21]: 0.87 µM
Activity [22]: 10.5%
Activity [23]: 56.3%
